Experimental data from patent US20250092345A1, “INTER ORGAN PLATFORM FOR MICROPHYSIOLOGICAL SYSTEM ON A CHIP” (THE TRUSTEES OF COLUMBIA UNIVERSITY IN THE CITY OF NEW YORK, priority 2020, published 2025).

Key:
[1] = tested on: engineered cardiac tissues; experiment: Engineered cardiac tissues in isolation, linsitinib cardiotoxicity; type: cell-based, human; conditions: after linsitinib exposure, isolated
Description: After establishing the capability of TE-ES tumors to model drug efficacy, we evaluated the ability of cardiac tissues to determine the cardiotoxicity of linsitinib. Cardiac tissues were exposed to the same therapeutic concentration of linsitinib as bone tumors. […] Cardiotoxicity of linsitinib has been observed in clinical trials of other types of cancer, with patients presenting proarrhythmic events, like tachycardia (3.75-5% of patients) and atrial fibrillation (3.75-5%). We observed higher beat frequency and higher rate of proarrhythmic events per beat (around 36%) than in clinical studies (FIG. 32B and FIG. 32C). […]
Cardiac tissues were studied using caffeine (50 mM in water; Sigma-Aldrich), amiodarone hydrochloride (2.418 µM in DMSO; Sigma-Aldrich), isoproterenol hydrochloride (a series of drug concentrations in water; Sigma-Aldrich) or doxorubicin hydrochloride (1 µM in DMSO; Sigma-Aldrich), all diluted in RPMI Medium 1640 supplemented with B-27[…]. Response to isoproterenol was analyzed 10 minutes after exposure to […] isoproterenol hydrochloride, diluted in RPMI Medium […] supplemented with B27[…]. […]
To measure the cardiac contractility online, we took contractility videos of the tissues that were analyzed using the native MATLAB code we previously developed. Tissue contractility was measured by tracking the change in tissue area as a function of time. […]

IGF-1 receptor = target: T1, IGF-1 receptor (Homo sapiens, UniProt P08069); experiment: Phospho-IGF1R ELISA in ES cell monolayers; type: cell-based; conditions: 12 μM for 6 hours
T1 construct: endogenous in cells; host or cells: RD-ES (ATCC HTB-166) and SK-N-MC (ATCC HTB-10) Ewing sarcoma cell lines

[2] = tested on: metastatic TE-ES (SK-N-MC); experiment: Metastatic engineered ES bone tumor (TE-ES) in isolated culture, linsitinib; type: cell-based, human; conditions: 12 μM
Description: The effects of linsitinib were studied in an experiment performed according to the 3-week treatment cycle used in the clinical trial (3 days of drug administration followed by 4 days without the drug, in 3 cycles), with luminescence signal serving as an indicator of cancer cell viability within the TE-ES.
Determining the effects of linsitinib on ES cells and osteoblasts within the engineered ES bone tumors across a 3-week clinical drug treatment regimen is shown in FIGS. 33A-33B. […] Supernatants were collected from each individual sample across the duration of the drug treatments and were analyzed for osteoblast function (OCN, OPN) and for cytotoxicity (LDH) (mean±s.e.m., n=3).
Two weeks following the initiation of osteogenic differentiation, aggregates of ES tumor cells were prepared as described previously, using 0.3×10^6 cells per aggregate. After 1 week of culture, corresponding to the end of bone tissue culture (3 weeks), the primary ES cell aggregates were placed into the engineered bone constructs (3 aggregates per construct, placed apart of each other). Tumor models were established for two different types of primary ES cells: non-metastatic (RD-ES) and metastatic (SK-N-MC). Tissue engineered RD-ES and SK-N-MC tumors were cultured in the RPMI and EMEM media, respectively, supplemented with 10% FBS and 1% penicillin/streptomycin. Bone constructs cultured without tumor cell aggregates (TE-bone) in RPMI and EMEM media were used as controls.
Specifically, linsitinib was dissolved at a 10 mM concentration in DMSO (Corning) and mixed in with the respective cell medium at a […] concentration unless otherwise noted. Vehicle treatments involved just the addition of DMSO at identical volumes as a control. Tissues were randomly assigned to experimental groups. Medium was changed every day.
Cell viability was analyzed using a previously established protocol. Cancer cell viability was measured for GFP-Luciferase labelled cancer cells using ONE-Glo luciferase substrate that was prepared according to manufacturer's protocol (Promega). Samples were collected following 3, 7, and 21 days cycles of linsitinib treatment. Where noted, longitudinal cell viability was also assessed using luminescence, though at the cost of signal strength. Briefly, in vivo grade VivoGlo™ Luciferin (Promega) was made at a 200× stock concentration (30 mg/ml) in water, added to sample culture media at a 1:200 dilution, and scanned using a spectrophotometer (Biotek). Some of the IC50 values were determined using cell viability data generated using an MTT assay (RealTime-Glo™ MT Cell Viability Assay, Promega) that were analyzed according to manufacturer's protocol.
Osteocalcin (OCN), osteopontin (OPN), and lactic acid dehydrogenase (LDH) secreted levels were all measured using a similar approach. […] LDH secretion was determined using a Lactate Dehydrogenase Assay Kit (Colorimetric; Abcam).

T1 sequence (P08069 31-1367): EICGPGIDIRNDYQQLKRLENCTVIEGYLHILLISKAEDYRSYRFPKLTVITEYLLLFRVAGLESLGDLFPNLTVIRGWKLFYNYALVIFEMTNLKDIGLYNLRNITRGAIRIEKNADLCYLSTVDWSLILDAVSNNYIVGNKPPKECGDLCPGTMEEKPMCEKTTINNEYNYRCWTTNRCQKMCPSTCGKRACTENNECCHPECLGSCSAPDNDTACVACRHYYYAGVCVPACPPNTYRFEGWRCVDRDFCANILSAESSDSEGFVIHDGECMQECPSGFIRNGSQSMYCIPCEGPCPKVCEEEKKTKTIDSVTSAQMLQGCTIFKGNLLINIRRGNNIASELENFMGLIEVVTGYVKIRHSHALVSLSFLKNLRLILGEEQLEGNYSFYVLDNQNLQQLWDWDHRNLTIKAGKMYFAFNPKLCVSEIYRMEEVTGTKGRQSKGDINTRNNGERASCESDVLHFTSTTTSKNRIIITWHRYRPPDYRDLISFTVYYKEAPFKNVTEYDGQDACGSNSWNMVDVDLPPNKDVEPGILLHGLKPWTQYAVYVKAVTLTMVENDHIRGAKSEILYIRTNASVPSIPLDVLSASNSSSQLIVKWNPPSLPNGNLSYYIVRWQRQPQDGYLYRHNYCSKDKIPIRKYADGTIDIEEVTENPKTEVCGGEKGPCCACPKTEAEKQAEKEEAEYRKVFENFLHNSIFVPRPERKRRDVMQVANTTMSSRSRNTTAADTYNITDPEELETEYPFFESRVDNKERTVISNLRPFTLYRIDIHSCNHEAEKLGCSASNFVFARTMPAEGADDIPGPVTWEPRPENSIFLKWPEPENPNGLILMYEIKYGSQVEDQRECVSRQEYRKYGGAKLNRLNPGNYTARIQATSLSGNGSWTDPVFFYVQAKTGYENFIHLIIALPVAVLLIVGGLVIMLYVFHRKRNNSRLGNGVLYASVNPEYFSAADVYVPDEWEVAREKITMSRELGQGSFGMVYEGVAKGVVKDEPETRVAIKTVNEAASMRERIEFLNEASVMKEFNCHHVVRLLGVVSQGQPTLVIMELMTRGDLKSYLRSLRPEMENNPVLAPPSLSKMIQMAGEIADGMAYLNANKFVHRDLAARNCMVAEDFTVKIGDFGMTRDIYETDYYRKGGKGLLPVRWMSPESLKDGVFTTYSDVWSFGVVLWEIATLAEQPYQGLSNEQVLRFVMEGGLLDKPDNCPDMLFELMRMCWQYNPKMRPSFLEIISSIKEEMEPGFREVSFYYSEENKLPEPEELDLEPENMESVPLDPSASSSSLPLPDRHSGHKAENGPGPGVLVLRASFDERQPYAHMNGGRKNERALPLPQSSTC

Compound: C[C@]1(O)C[C@@H](c2nc(-c3ccc4ccc(-c5ccccc5)nc4c3)c3c(N)nccn32)C1 [linsitinib]
- inotropic response to subsequent isoproterenol [1]: not observed
- levels of phosphorylated IGF-1R (IGF-1 receptor): significant decreases
- cytotoxicity (LDH secretion) ([2]; 3-week regimen): spiked
- osteocalcin secretion ([2]; 3-week regimen): decreased
- cancer cell population (luminescence) across the clinical regimen ([2]; 21-day treatment regimen): decrease in drug efficacy, as the cancer cell population continued to expand
- drug response (luminescence) ([2]; after 3 days): significant drug response
- osteopontin secretion ([2]; throughout the 21 days): decreased
